The nature of data set [1]: Solubility enhancing effect of cyclodextrin derivative on aprepitant in aqueous medium. It is filed as physicochemical.
The conditions of data set [2]: cited from earlier work.

In the case of `C[C@@H](O[C@H]1OCCN(Cc2n[nH]c(=O)[nH]2)[C@H]1c1ccc(F)cc1)c1cc(C(F)(F)F)cc(C(F)(F)F)c1` [Aprepitant], the “Increase in Aprepitant Solubility” value in data set [1] (Cyclodextrin Derivative 0 mg/mL) is reported as 0%; in data set [1] (Cyclodextrin Derivative 32 mg/mL), 105%; in data set [1] (Cyclodextrin Derivative 64 mg/mL), 300%; in data set [1] (Cyclodextrin Derivative 128 mg/mL) it was 748%; in data set [1] (Cyclodextrin Derivative 160 mg/mL), 1039%; in data set [1] (Cyclodextrin Derivative 180 mg/mL) it was 1244%. The “Increase in Aprepitant Solubility” value in data set [1] (Cyclodextrin Derivative 200 mg/mL) turned out to be 1322%; in data set [1] (Cyclodextrin Derivative 255 mg/mL) it was 1717%. Further, in data set [2] (non-polar solvents such as oils), the “solubility in non-polar solvents such as oils” value was “reasonably high”. In data set [2] (water), the solubility in water entry is “very limited”.

(Values after patent US11065265B2, “Compositions of fosaprepitant and methods of preparation” (SPES PHARMACEUTICALS INC., priority 2018, dated 2021).)
